Data as given in the supplement of paper PMC5908809.

What was measured:
[1] = tested on: normal NK cells expanded with K562-aAPC; assay: percent inhibition of viability; higher = more inhibition; conditions: 72 h, IL-2 2.5 ng/mL
Method: (§1)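 Drug sensitivity and resistance testing on K562-aAPC-expanded normal NK cells: 5 concentrations (10-fold steps over a 10,000-fold range), 72 h at 37 °C, viability by CellTiter-Glo normalised to DMSO and benzethonium chloride controls; DSS from the fitted curve.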

DERL-7 (IL-2 2.5 ng/mL) [2] = assay: as above; conditions: 72 h
IMC-1 (IL-2 20 ng/mL) [3] = assay: as above; conditions: 72 h
KAI3 (IL-2 2.5 ng/mL) [4] = assay: as above; conditions: 72 h
KHYG-1 (IL-2 2.5 ng/mL) [5] = assay: as above; conditions: 72 h
NK-92 (IL-2 2.5 ng/mL) [6] = assay: as above; conditions: 72 h
NK-YS (IL-2 2.5 ng/mL) [7] = assay: as above; conditions: 72 h
NKL (IL-2 2.5 ng/mL) [8] = assay: as above; conditions: 72 h
SNK-6 (IL-2 2.5 ng/mL) [9] = assay: as above; conditions: 72 h
YT (IL-2 2.5 ng/mL) [10] = assay: as above; conditions: 72 h
[11] = tested on: normal primary NK cells, pool 1 (3 donors) (IL-2 2.5 ng/mL); assay: as above; conditions: 72 h
[12] = tested on: normal primary NK cells, pool 1 (3 donors), resting (IL-2 0 ng/mL); assay: as above; conditions: 72 h
[13] = tested on: normal primary NK cells, pool 2 (3 donors) (IL-2 2.5 ng/mL); assay: as above; conditions: 72 h
[14] = tested on: normal primary NK cells, pool 3 (3 donors) (IL-2 2.5 ng/mL); assay: as above; conditions: 72 h
[15] = tested on: normal NK cells expanded with K562-aAPC; assay: drug sensitivity score (DSS) (DSS units); higher = more sensitive; extreme values may be limits of the assay; conditions: 72 h; IL-2 2.5 ng/mL
Method: as §1

DERL-7 (IL-2 2.5 ng/mL) [16] = assay: as above; conditions: 72 h
IMC-1 (IL-2 20 ng/mL) [17] = assay: as above; conditions: 72 h
KAI3 (IL-2 2.5 ng/mL) [18] = assay: as above; conditions: 72 h
KHYG-1 (IL-2 2.5 ng/mL) [19] = assay: as above; conditions: 72 h
NK-92 (IL-2 2.5 ng/mL) [20] = assay: as above; conditions: 72 h
NK-YS (IL-2 2.5 ng/mL) [21] = assay: as above; conditions: 72 h
NKL (IL-2 2.5 ng/mL) [22] = assay: as above; conditions: 72 h
SNK-6 (IL-2 2.5 ng/mL) [23] = assay: as above; conditions: 72 h
YT (IL-2 2.5 ng/mL) [24] = assay: as above; conditions: 72 h
[25] = tested on: normal primary NK cells, pool 1 (3 donors) (IL-2 2.5 ng/mL); assay: as above; conditions: 72 h
[26] = tested on: normal primary NK cells, pool 1 (3 donors), resting (IL-2 0 ng/mL); assay: as above; conditions: 72 h
[27] = tested on: normal primary NK cells, pool 2 (3 donors) (IL-2 2.5 ng/mL); assay: as above; conditions: 72 h
[28] = tested on: normal primary NK cells, pool 3 (3 donors) (IL-2 2.5 ng/mL); assay: as above; conditions: 72 h

CN(C)Cc1ccc(S(=O)(=O)n2ccc(/C=C/C(=O)NO)c2)cc1 [Resminostat] (max concentration tested 10000 nM)
percent inhibition of viability [%]
Conditions	1 nM	10 nM	100 nM	1000 nM	10000 nM
DERL-7 (IL-2 2.5 ng/mL) [2]	2.49	1.77	-10	47.9	101
IMC-1 (IL-2 20 ng/mL) [3]	-6.01	-4.89	-2.77	-7.01	101
KAI3 (IL-2 2.5 ng/mL) [4]	1.92	3.59	28.4	71.5	104
KHYG-1 (IL-2 2.5 ng/mL) [5]	-5.72	-0.43	1.19	68.5	106
NK-92 (IL-2 2.5 ng/mL) [6]	-4.22	-5.89	2.76	72.4	104
NK-YS (IL-2 2.5 ng/mL) [7]	-6.67	-3.77	2.32	34.2	103
NKL (IL-2 2.5 ng/mL) [8]	10.2	0.52	26.1	80.8	106
SNK-6 (IL-2 2.5 ng/mL) [9]	11.1	1.11	5.35	56.6	101
YT (IL-2 2.5 ng/mL) [10]	-1.93	-2.18	2.96	27.7	105
[1]	-4.58	-2.4	-0.88	36.9	101
[11]	2.24	11.9	12.7	57.5	98.9
[12]	-6.63	11.2	20.3	73.7	89.4
[13]	-6.44	4.91	8.82	42	97.4
[14]	-1.68	4.21	3.8	20.1	98.5

Conditions	drug sensitivity score
DERL-7 (IL-2 2.5 ng/mL) [16]	11.5
IMC-1 (IL-2 20 ng/mL) [17]	5.11
KAI3 (IL-2 2.5 ng/mL) [18]	17.1
KHYG-1 (IL-2 2.5 ng/mL) [19]	13.4
NK-92 (IL-2 2.5 ng/mL) [20]	14.1
NK-YS (IL-2 2.5 ng/mL) [21]	10.3
NKL (IL-2 2.5 ng/mL) [22]	18.2
SNK-6 (IL-2 2.5 ng/mL) [23]	12.3
YT (IL-2 2.5 ng/mL) [24]	9.67
[15]	10.6
[25]	13
[26]	16.1
[27]	10.2
[28]	8.68
